Assay results as given in patent US20220267390A1, “MPS MODIFIED PEPTIDES AND USE THEREOF” (The Regents of the University of California, priority 2019, published 2022).
Where no end group is shown, it is not given here.

Columns and labels:
Assay type in all cases: cell-based, human
IPF fibroblast cells = assay: cells; details: 72 h
Experimental: FIG. 14: Comparison of MPS-12042 (SEQ ID NO: 45) versus know tyrosine kinase inhibitor (TKLs) on the treatment of IPF fibroblast cells. Both normal and IPF lung fibroblast cells were treated with various drugs. After 72 hours, cells were subjected to MTT assays and IC50 for each drug was determined.
Human primary fibroblast cells were obtained from airway tissues provided from the UC Davis Medical Hospital (Sacramento, Calif.) with consent. The protocol for human tissue procurement and usage were periodically reviewed and approved by the University Human Subject Research Review Committee. Primary fibroblast cell lines, IPF-1 and IPF-2 cells, were established from IPF patients. Cells were obtained from lung biopsies and the diagnosis of IPF was supported by patient history, physical examination, pulmonary function tests, and typical high-resolution chest computed tomography findings of IPF. […] All patients fulfilled the criteria for the diagnosis of IPF as established by the American Thoracic Society and European Respiratory Society. Non-fibrotic primary control adult human lung fibroblast lines, Normal-1 and Normal-2 cells were used. These lines were established from normal lung tissue or histologically normal lung tissue adjacent to carcinoid tumor. The IPF cell line, LL97A, was purchased from the American Type Culture Collection (ATCC) (Manassas, Va.). Lung fibroblast lines were cultured in high-glucose DMEM or RPMI-1640 medium with 10% fetal bovine serum and 1% penicillin-streptomycin at 37° C. in a humidified atmosphere of 5% CO2. Fibroblasts were used between passages 4 and 8. Cells were characterized as fibroblasts as described^26.
Cells were seeded onto 96-well plates at a density of 5-10×10^3 cells per well and cultured for the indicated treatment. Cell proliferation was evaluated using a MTS assay kit (Promega, Madison, Wis.). Twenty microliters of the combined MTS/PMS solution was added into each well, incubated for 3 hours at 37° C., and the absorbance was measured at 490 nm by using an ELISA reader. For Trypan blue test, cells were plated on 12-well plates and treated with the indicated chemotherapeutic agents. After 72 hours, both attached and detached cells were collected and then stained with 0.2% trypan blue (0.1% final concentration), and the number of trypan blue-positive and -negative cells was counted using a haemocytometer under low-power microscopy. For colony-forming assays, 200 cells were seeded in each well of six-well plates. IPF-1 or IPF-2 primary cells were treated with peptides at the indicated concentrations for 10 days. Colonies were stained using 0.001% crystal violet and the number of colonies with a diameter greater than 0.5 mm was counted under an inverted microscope.

PIP3 [1] = assay: PI(3,4,5)P3 quantitation (PIP3 Mass ELISA) in IPF fibroblasts; details: MPS-treated IPF fibroblasts vs PBS
Description: FIGS. 10A-10C: (FIG. 10A) The PIP2-binding motif (SEQ ID NO: 12) on the ? hosphorylation ? ite ? omain (PSD) of MARCKS. FIG. 10A discloses the MH domain as SEQ ID NO: 86). (FIG. 10B) Biolayer interferometry analysis of the binding of the MPS peptide to biotin-labeled PIP2. (FIG. 10C) PIP3 levels in IPF fibroblast cells with PBS or MPS treatment. * p<0.05 versus PBS (n=3).
Cells were harvested and precipitated by trichloroacetic acid. PIP3 lipids were extracted twice from the trichloroacetic acid precipitated fraction by methanol: chloroform (2:1). After acidification, organic-phase lipids were used for PIP3 quantitation, based on the protocol for the PIP3 Mass ELISA kit (Echelon Biosciences, Salt Lake, Utah). Briefly, the lipid extract from cultured cells was mixed with the PIP3-specific detector protein, which was then incubated in a PIP3-coated microplate for competitive binding. After several washes, the microplate was then incubated with a HRP-linked secondary detector and tetramethylbenzidine substrate for color development. To stop further color development, 2M H2SO4 solution was then added. Microplates were read at an absorbance wavelength of 450 nm. A series of different dilutions of PIP3 standards were used for establishing a standard curve for each reaction. Cellular PIP3 amounts could be estimated by comparing the absorbance in the wells with the values in the standard curve. […]

PIP3 [2] = assay: Immunocytochemistry with anti-PIP3 antibodies in IPF lung fibroblast cells; details: 100 μM, 12 hours
Experimental: Multiple IPF lung fibroblast cells were treated with either PBS or 100 μM of MPS peptide for 12 hours and then subjected to immunocytochemistry using anti-PIP3 antibodies. Representative images are shown (n=3). Scale bar: 20 μm.
MARCKS levels and activity (phospho-MARCKS) were correlated with higher pro-fibrotic activity including cell proliferation, extracellular matrix production, invasiveness, and fibroblast differentiation. Upon treatment with MPS peptides, which target MARCKS activity, Applicant observes attentuation of these activities. The second significant finding was that MARCKS mediates these profibrotic effects through through the PI3K/AKT pathway. […] Targeting of these activities with MPS peptide results in decreased AKT activity and downstream pro-fibrotic signals. The mechanism through which this occurs is through regulation of PIP2 availability at the cell membrane. In an unphosprylated state, MARCKS is able to bind PIP2 at the cell membrane, preventing PI3K proteins from converting PIP2 into PIP3 and effecting downstream AKT activity. Upon phosphorylation, MARCKS is released from the cell membrane into the cytosol, freeing up PIP2 and allowing PI3K to convert PIP2 into PIP3. […] Applicant obtained multiple IPF lung fibroblast cells and treated them with either PBS or 100 μM MPS peptide for 12 hours and subjected to immunocytochemistry utilizing anti-PIP3 antibody.

[3] = system: primary IPF fibroblast cells; assay: Cell motility and colony-forming ability of primary IPF fibroblasts
Experimental: FIGS. 4A-4B: MARCKS inhibition using MPS peptide reduced primary IPF fibroblast cell motility (FIG. 4A) and colony-forming ability (FIG. 4B) n=4; *, p<0.05.
An in vitro cell migration assay was performed as previously described^13, 14 using Transwell chambers (8-μm pore size; Costar, Cambridge, Mass.). Briefly, 2×10^4 cells were seeded on top of the polycarbonate filters, and 0.5 ml of growth medium with scrambled or MPS peptide (100 μM) was added to both the upper and lower wells. After incubation for 20 hours, filters were swabbed with a cotton swab, fixed with methanol, and then stained with Giemsa solution (Sigma). The cells attached to the lower surface of the filter were counted under a light microscope (10× magnification).
Cells were seeded onto 96-well plates at a density of 5-10×10^3 cells per well and cultured for the indicated treatment. Cell proliferation was evaluated using a MTS assay kit (Promega, Madison, Wis.). Twenty microliters of the combined MTS/PMS solution was added into each well, incubated for 3 hours at 37° C., and the absorbance was measured at 490 nm by using an ELISA reader. […] After 72 hours, both attached and detached cells were collected and then stained with 0.2% trypan blue (0.1% final concentration), and the number of trypan blue-positive and -negative cells was counted using a haemocytometer under low-power microscopy. […]

KKKKKRFSFKKSFKLSGFSFKKNKK [MPS peptide]
IC50 (IPF fibroblast cells): 125 to 178 µM | PIP3 pools in whole cell lysates (PIP3 [1]): decrease | PIP3 levels (PIP3 [2]): reduced | cell motility [3]: reduces | proliferation (colony-forming ability) [3]: reduces
